Assay results taken from patent US8648094B2, “IAP BIR domain binding compounds” (Pharmascience, Inc., priority 2006, dated 2014).
pEC50: −log10 of the molar value.

Experiments:
MDA-MB-231 cells = experiment: Survival MTT assay; assay type: cell-based; conditions: Homo sapiens, 72 hours, read-out: MDA-MB231 EC50
Protocol: (§1) One day prior the treatment with compound, 2000 to 4000 cells per well were plated in a tissue culture treated 96 well format dish with 100 uL of media and incubated at 37° C., 5% CO2. On the day of compound treatment, compounds were diluted with cell culture media to a working stock concentration of 2×. 100 ul of diluted compound were then added to each well. The treated plate was incubated for 72 hours at 37° C., 5% CO2. Upon incubation, the cell viability was assessed as follows; 20 uL of MTT reagent (5 mg/mL) were added per well to cell plate. The plate was incubated for 2 hrs at 37° C. in presence of 5% CO2. The supernatant was then removed from the plate and 100 uL of isopropanol was added. The absorbance was measured in a TECAN spectrophotometer at 570 nm. The percentage of viability was expressed in percentage of the signal obtained with non treated cells.

SKOV-3 cells = experiment: Survival MTT assay; assay type: cell-based; conditions: Homo sapiens, SK-OV-3, 72 hours
Protocol: as §1

c-IAP1 = target: T1, c-IAP1 (Homo sapiens, UniProt Q13490); experiment: Detection of c-IAP1 in cells by western blotting; assay type: cell-based; conditions: HCT116 cells, overnight treatment
T1 construct: endogenous in cells; host or cells: HCT116
Protocol: Detection of cell expressed XIAP and PARP were done by western blotting. Cells were plated at 300 000 cells/well in a 60 mm wells (6 wells plate dish). The next day the cells were treated with selected compound at the indicated concentration. […] The resulting pellet was rinsed twice with cold TBS. The final washed pellet of cells was the lysed with 250 ul Lysis buffer (NP-40, glycerol, 1% of a protease inhibitor cocktail (Sigma)), placed at 4° C. for 25 min with gentle shaking. The cells extract was centrifuged at 4° C. for 10 min at 10 000 rpm. Both the supernatant and the pellet were kept for western blotting analysis as described below. From the supernatant, the protein content was evaluated and about 50 ug of protein was fractionated onto a 10% SDS-PAGE. Pellets were washed with the lysis buffer and re-suspend into 50 ul of Lamelli buffer 1×, boiled and fractionated on SDS-PAGE. Upon electrophoresis each gel was electro-transferred onto a nitrocellulose membrane at 0.6 A for 2 hours. Membrane non-specific sites were blocked for 1 hours with 5% Skim milk in TBST (TBS containing 0.1% (v/v) Tween-20) at RT. For protein immuno-detection, membranes were incubated overnight with primary antibodies raised against various IAPs or caspase-3 or caspase-9 primary antibodies were incubated at 4° C. with shaking at dilutions as follows:
Upon overnight incubation, the membranes received three washes of 15 min in TBST then were incubated for 1 hour at room temperature in the presence of a secondary antibody coupled with HRP-enzyme (Chemicon) and diluted at 1/5 000. Upon incubation each membrane were washed three times with TBST and the immunoreactive bands were detected by addition of a luminescent substrate (ECL kit Amersham) and capture of signal on a X-RAY film for various time of exposure.

A2780S ovarian cells = experiment: Potentiation of TRAIL efficacy in survival assay; assay type: cell-based; conditions: 10 nM of compound
selected cell lines = experiment: Hollow fiber in vivo model; conditions: compared to fibers from vehicle treated control mice
Protocol: At day 1, selected cell lines are cultured and the fiber filled at a cell density of about 40,000 cells/fiber. At the day of operation (day 4), three fibers are implanted sub-cutaneous into 28-35 Nu/Nu CD-1 male mice. On day 5, mice start to receive daily injection via sub-cutaneous route of control vehicle or vehicle containing the selected compound at the appropriate concentration and/or injection of cytotoxic agent via intra-peritoneal route. Upon 4 days of consecutive treatments, the animals are sacrificed, each fiber is removed and the metabolic viability of the remaining cells determined by MTT assay. Efficacy of the compound is define as the difference between the vehicle-treated animal and the animal treated with the compound alone or the compound given in combination of the cytotoxic agent

HCT116 colorectal cells = experiment: Potentiation of TRAIL efficacy in survival assay; assay type: cell-based, human; conditions: 10 nM of compound
Protocol: Survival assays were preformed on the following transformed human cancer cell lines, MDA-MB-231, SKOV-3, H460, PC3, HCT-116, and SW480 cells. Cells were seeded in 96 well plates at a respective density of 5000 and 2000 cells per well and incubated at 37° C. in presence of 5% CO2 for 24 hours. Selected compounds were diluted into the media at various concentration ranging from 0.00001 uM up to 100 uM. Diluted compounds were added to the culture media. For the MDA-MB-231 SKOV3, H460, PC3, HCT-116, and SW480 cells, the compounds were added either alone or in presence of 1-3 ng/ml of TRAIL. After 48-72 hours cellular viability was evaluated by MTS based assays. A solution of [3-(4,5-dimethylthiazol-2-yl)-5-(3-carboxymethoxyphenyl)-2-(4-sulfophenyl)-2H-tetrazolium, inner salt; MTS] was added onto cells for a period of 1 to 4 hours. Upon incubation the amount of converted MTS was evaluated using a Tecan spectrophotometer set at 570 nm.

T1 sequence (Q13490 whole entry): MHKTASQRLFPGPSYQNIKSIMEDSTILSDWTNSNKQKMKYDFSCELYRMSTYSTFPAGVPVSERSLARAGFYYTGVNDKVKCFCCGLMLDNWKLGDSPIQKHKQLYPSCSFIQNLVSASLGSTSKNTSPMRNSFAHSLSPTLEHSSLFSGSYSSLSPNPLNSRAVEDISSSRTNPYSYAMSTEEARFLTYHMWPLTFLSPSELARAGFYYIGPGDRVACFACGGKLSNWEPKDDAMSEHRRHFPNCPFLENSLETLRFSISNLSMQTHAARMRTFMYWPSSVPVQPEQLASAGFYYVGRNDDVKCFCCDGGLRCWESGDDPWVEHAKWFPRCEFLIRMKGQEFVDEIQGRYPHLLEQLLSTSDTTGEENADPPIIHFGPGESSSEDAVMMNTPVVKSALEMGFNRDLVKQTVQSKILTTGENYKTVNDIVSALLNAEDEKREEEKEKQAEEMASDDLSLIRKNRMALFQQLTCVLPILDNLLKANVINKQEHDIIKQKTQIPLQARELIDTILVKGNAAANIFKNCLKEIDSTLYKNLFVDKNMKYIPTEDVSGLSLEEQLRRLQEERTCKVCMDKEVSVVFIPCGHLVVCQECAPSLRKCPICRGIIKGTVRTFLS

Row | SMILES | pEC50 (SKOV-3 cells) | c-IAP1 levels (c-IAP1) | other results
1 | CN[C@@H](C)C(=O)N[C@H](C(=O)N1CCC[C@H]1CN(CCc1ccccc1)C(=O)c1ccc(C(=O)N(CCc2ccccc2)C[C@@H]2CCCN2C(=O)[C@@H](NC(=O)[C@H](C)NC)C(C)(C)C)s1)C(C)(C)C [Compound 26] | 7.60 to 8.00 |  | pEC50 (MDA-MB-231 cells): > 8.00
2 | CN[C@@H](C)C(=O)N[C@H](C(=O)N1CCC[C@H]1CN(Cc1cccc(C(F)(F)F)c1)C(=O)CCCCCCCCC(=O)N(Cc1cccc(C(F)(F)F)c1)C[C@@H]1CCCN1C(=O)[C@@H](NC(=O)[C@H](C)NC)C(C)(C)C)C(C)(C)C [Compound 100] |  | reduced | 
3 | CN[C@@H](C)C(=O)N[C@H](C(=O)N1CCC[C@H]1CN(CCc1ccccc1)C(=O)CNC(=O)c1cccc(C(=O)NCC(=O)N(CCc2ccccc2)C[C@@H]2CCCN2C(=O)[C@@H](NC(=O)[C@H](C)NC)C(C)(C)C)c1)C(C)(C)C [Compound 44] | > 8.00 | reduced | 
4 | CN[C@@H](C)C(=O)N[C@H](C(=O)N1CCC[C@H]1CN(CCc1ccccc1)C(=O)CNC(=O)c1ccc(C(=O)NCC(=O)N(CCc2ccccc2)C[C@@H]2CCCN2C(=O)[C@@H](NC(=O)[C@H](C)NC)C(C)(C)C)cc1)C(C)(C)C [Compound 35] | > 8.00 |  | pEC50 (MDA-MB-231 cells): > 8.00; potentiated TRAIL efficacy (A2780S ovarian cells): approximately 2 logs
5 | CN[C@@H](C)C(=O)N[C@H](C(=O)N1CCC[C@H]1CN(CCc1ccccc1)C(=O)Nc1ccc(NC(=O)N(CCc2ccccc2)C[C@@H]2CCCN2C(=O)[C@@H](NC(=O)[C@H](C)NC)C(C)(C)C)cc1)C(C)(C)C [Compound 20] | 7.60 to 8.00 |  | pEC50 (MDA-MB-231 cells): > 8.00
6 | CN[C@@H](C)C(=O)N[C@H](C(=O)N1CCC[C@H]1CN(CCc1ccccc1)C(=O)c1ccc2cc(C(=O)N(CCc3ccccc3)C[C@@H]3CCCN3C(=O)[C@@H](NC(=O)[C@H](C)NC)C(C)(C)C)ccc2c1)C(C)(C)C [Compound 56] | > 8.00 |  | decrease in MTT signal in fibers from treated mice (selected cell lines): 70%
7 | CN[C@@H](C)C(=O)N[C@H](C(=O)N1CCC[C@H]1CN(C[C@H](C)c1ccccc1)C(=O)CCCCCCCCC(=O)N(C[C@@H]1CCCN1C(=O)[C@@H](NC(=O)[C@H](C)NC)C(C)(C)C)C[C@H](C)c1ccccc1)C(C)(C)C [Compound 21] | > 8.00 |  | pEC50 (MDA-MB-231 cells): > 8.00
8 | CN[C@@H](C)C(=O)N[C@H](C(=O)N1CCC[C@H]1CN(CCc1ccccc1)C(=O)CNC(=O)C(=O)NCC(=O)N(CCc1ccccc1)C[C@@H]1CCCN1C(=O)[C@@H](NC(=O)[C@H](C)NC)C(C)(C)C)C(C)(C)C [Compound 31] | > 8.00 | reduced | pEC50 (MDA-MB-231 cells): > 8.00; potentiated TRAIL efficacy (HCT116 colorectal cells): approximately 2 logs; decrease in MTT signal in fibers from treated mice (selected cell lines): 70%
9 | CN[C@@H](C)C(=O)N[C@H](C(=O)N1CCC[C@H]1CN(Cc1cccc(-c2ccccc2)c1)C(=O)CCCCCCCCC(=O)N(Cc1cccc(-c2ccccc2)c1)C[C@@H]1CCCN1C(=O)[C@@H](NC(=O)[C@H](C)NC)C(C)(C)C)C(C)(C)C [Compound 75] | 7.60 to 8.00 |  | 
10 | CN[C@@H](C)C(=O)N[C@H](C(=O)N1CCC[C@H]1CN(CCc1ccc(F)cc1)C(=O)CNC(=O)C(=O)NCC(=O)N(CCc1ccc(F)cc1)C[C@@H]1CCCN1C(=O)[C@@H](NC(=O)[C@H](C)NC)C(C)(C)C)C(C)(C)C [Compound 73] | > 8.00 |  | 
11 | CN[C@@H](C)C(=O)N[C@H](C(=O)N1CCC[C@H]1CN(CCc1ccc(F)cc1)S(=O)(=O)c1cccc(S(=O)(=O)N(CCc2ccc(F)cc2)C[C@@H]2CCCN2C(=O)[C@@H](NC(=O)[C@H](C)NC)C(C)(C)C)c1)C(C)(C)C [Compound 57] | 7.60 to 8.00 |  | 
12 | CN[C@@H](C)C(=O)N[C@H](C(=O)N1CCC[C@H]1CN(CCc1ccccc1)C(=O)CNC(=O)c1ccc2cc(C(=O)NCC(=O)N(CCc3ccccc3)C[C@@H]3CCCN3C(=O)[C@@H](NC(=O)[C@H](C)NC)C(C)(C)C)ccc2c1)C(C)(C)C [Compound 63] | > 8.00 |  | 
13 | CN[C@@H](C)C(=O)N[C@H](C(=O)N1CCC[C@H]1CN(CCc1ccccc1)C(=O)CCCCCCCCCCC(=O)N(CCc1ccccc1)C[C@@H]1CCCN1C(=O)[C@@H](NC(=O)[C@H](C)NC)C(C)(C)C)C(C)(C)C [Compound 18] | 7.60 to 8.00 |  | 
14 | CN[C@@H](C)C(=O)N[C@H](C(=O)N1CCC[C@H]1CN(CCc1ccc(C(F)(F)F)cc1)C(=O)CCCCCCCCC(=O)N(CCc1ccc(C(F)(F)F)cc1)C[C@@H]1CCCN1C(=O)[C@@H](NC(=O)[C@H](C)NC)C(C)(C)C)C(C)(C)C [Compound 67] |  | reduced | 
15 | CN[C@@H](C)C(=O)N[C@H](C(=O)N1CCC[C@H]1CN(CCc1ccc(F)cc1)C(=O)CCCCCCCCC(=O)N(CCc1ccc(F)cc1)C[C@@H]1CCCN1C(=O)[C@@H](NC(=O)[C@H](C)NC)C(C)(C)C)C(C)(C)C [Compound 29] | 7.60 to 8.00 |  | pEC50 (MDA-MB-231 cells): > 8.00
16 | CN[C@@H](C)C(=O)N[C@H](C(=O)N1CCC[C@H]1CN(CCCCc1ccccc1)C(=O)CCCCCCCCC(=O)N(CCCCc1ccccc1)C[C@@H]1CCCN1C(=O)[C@@H](NC(=O)[C@H](C)NC)C(C)(C)C)C(C)(C)C [Compound 40] |  | reduced | 
17 | CN[C@@H](C)C(=O)N[C@H](C(=O)N1CCC[C@H]1CN(CCc1ccccc1)C(=O)CNC(=O)CCCCC(=O)NCC(=O)N(CCc1ccccc1)C[C@@H]1CCCN1C(=O)[C@@H](NC(=O)[C@H](C)NC)C(C)(C)C)C(C)(C)C [Compound 50] | 7.60 to 8.00 |  | 
18 | CN[C@@H](C)C(=O)N[C@H](C(=O)N1CCC[C@H]1CN(CCc1ccccc1)C(=O)CNC(=O)c1ccc(-c2ccc(C(=O)NCC(=O)N(CCc3ccccc3)C[C@@H]3CCCN3C(=O)[C@@H](NC(=O)[C@H](C)NC)C(C)(C)C)cc2)cc1)C(C)(C)C [Compound 45] | > 8.00 | reduced | 
19 | CN[C@@H](C)C(=O)N[C@H](C(=O)N1CCC[C@H]1CN(CCc1ccc(F)cc1)C(=O)c1ccc(-c2ccc(C(=O)N(CCc3ccc(F)cc3)C[C@@H]3CCCN3C(=O)[C@@H](NC(=O)[C@H](C)NC)C(C)(C)C)cc2)cc1)C(C)(C)C [Compound 58] | 7.60 to 8.00 |  | 
20 | CN[C@@H](C)C(=O)N[C@H](C(=O)N1CCC[C@H]1CN(CCc1ccccc1)C(=O)CCNC(=O)c1ccc(C(=O)NCCC(=O)N(CCc2ccccc2)C[C@@H]2CCCN2C(=O)[C@@H](NC(=O)[C@H](C)NC)C(C)(C)C)cc1)C(C)(C)C [Compound 91] | 7.60 to 8.00 | reduced | 
21 | CN[C@@H](C)C(=O)N[C@H](C(=O)N1CCC[C@H]1CN(CCc1ccccc1)C(=O)CCC(=O)N(CCc1ccccc1)C[C@@H]1CCCN1C(=O)[C@@H](NC(=O)[C@H](C)NC)C(C)(C)C)C(C)(C)C [Compound 6] | < 7.60 |  | 
